Test results: patent US10993935B2, “Compositions and methods for treatment of lung infections” (priority 2018, dated 2021)

How the values were obtained:
P. aeruginosa = assay: Uronic acid carbazole assay of alginate production; assay type: cell-based, Pseudomonas aeruginosa
Description: Data shown represent means of 5 replicates per group ±standard error (SE). Two-way ANOVA analysis was used with statistical significance set as a P value of <0.01 (****, P<0.0001; **, P<0.001; *, P<0.01).
Uronic Acid Carbazole Assay. Alginate production was measured via carbazole assay. Laboratory and clinical isolate strains were grown in PIB from a single colony isolation. The strains were then plated on 150 mm agar plates containing no antibiotic; RFX at concentrations of 10 μM (MIC50), 6 μM (MIC30), 2 μM (MIC10), and 0.2 μM (MIC1); or TOB at concentrations of 2 μM (MIC50), 1.2 μM (MIC30), 0.4 μM (MIC10), and 0.04 μM (MIC1) and incubated at 37° C. for 48 h. Sterile PBS (30 mL) was added to the plates and the cells plus their mucoid film were collected into 50 mL conical tubes. A 1 mL sample was taken to measure growth via OD at 600 nm. A 700 μL sample was then added to tubes containing 6 mL of a sulfuric acid-borate solution. A 200 μL aliquot of 0.1% carbazole was then added to the tubes and incubated for 30 m at 55° C. The alginate was then measured via OD at 530 nm and plotted against a standard curve made with D-mannuronic acid (Sigma-Aldrich). The reported values represent an average from three independent alginate collections with standard deviation.
To investigate the extent of this inhibition, PAO1, PAO581, and two mucoid P. aeruginosa CF isolates (CF001 and CF010) were grew on PIA plates containing sub-MIC concentrations of either TOB or RFX and measured alginate production with the carbazole assay. […] The MIC normalization was used to compare the effect of the two drugs on inhibition of alginate production, as this allowed the measurement of alginate made by the same number of bacterial cells.

P. aeruginosa biofilms = assay: Biofilm reduction assay (crystal violet); assay type: cell-based, Pseudomonas aeruginosa; conditions: PAO1, CF001, CF010; 24 h biofilms treated at 3×MIC
Description: FIGS. 3A-3B include graphs showing biofilm and cell viability reduction from treatment with TOB and/or RFX, where (FIG. 3A) biofilms were grown for 24 h in a 96-well plate and then treated with TOB, RFX, or TOB and RFX at a concentration of 3×MIC, or where (FIG. 3B) biofilms were grown for 24 h in a 96-well plate and then treated with TOB, RFX, or TOB and RFX at concentration of 3×MIC. Two-way ANOVA analysis was used with statistical significance set as a P value of <0.01 (****, P<0.0001; **, P<0.001; *, P<0.01).
Biofilm Reduction Assay. A biofilm reduction assay was used to determine the reduction of biofilms in P. aeruginosa strains by TOB and/or RFX. Briefly, biofilms were grown in a flat bottom 96-well microplate (Corning) using 200 μl LB of 1.0-1.5×10^5 inoculum of lab and clinical strains of non-mucoid and mucoid P. aeruginosa. After 24-30 h incubation at 37° C., the media was removed, and plates were washed with PBS. New media containing 1-5×MIC90 of TOB and/or RFX was added to the plate in a checkerboard pattern to determine synergy of biofilm reduction. After 24 h incubation at 37° C., the media was removed and 200 μl of 0.1% aqueous crystal violet was added and left at room temperature 0.5 h. […] The plates were then read via OD at 595 nm using SpectraMax i3x plate reader to compare biofilm dispersion between TOB and/or RFX. […]

[1] = test system: P. aeruginosa PAO1 with bioluminescent operon (luxCDABE); assay: Murine pneumonia model, multiple-dose treatment, lung bacterial load; assay type: in vivo, DBA/2 mice; conditions: 300 mg doses at 6, 8 and 10 h post-infection (3× TOB, or RFX then 2× TOB); lungs at 12, 18, 24 h
From the text: FIG. 6 is a graph showing that the addition of RFX to multiple treatments of TOB results in a decrease of CFU per milliliter of P. aeruginosa in mouse lungs. Plot showing the CFU per milliliter counts of mice after being infected with P. aeruginosa and left untreated, treated with multiple doses of TOB, or treated with multiple doses of TOB with addition of RFX. Data shown represent average of 2 mice per time point per group. Two-way ANOVA was used to test for statistical significance with a P value of <0.01 (****, P<0.0001).
Female DBA/2 mice were infected at 0 hour and split into 3 experimental groups of 8: no treatment; treatment with 300 mg TOB at 6, 8, and 10 h post-infection; or treatment with 300 mg RFX at 6 h and 300 mg TOB at 8 and 10 h post-infection. Two mice from each group were sacrificed at 12, 18, and 24 h post-infection. Lungs from sacrificed mice were homogenized in 1% PPBS and tested for bacterial growth to determine CFU load per mouse. Bacteria grown were also imaged for evidence of bioluminescence. Two mice from each group were left to observe for survival.
Based on the efficacy seen with the single dose treatment a multiple dose study was used to replicate clinical treatment conditions seen with CF infections. The efficacy of TOB in multiple doses with or without RFX was determined using the established lung infection model. […]

[2] = non-mucoid strain PAO1, sub-MIC concentrations (MIC1-MIC50) on PIA, TOB versus RFX

Compound	alginate production (P. aeruginosa; mucoid CF isolates CF001 and CF010, compared to TOB)	alginate production (P. aeruginosa; mucoid strain PAO581, all concentrations tested, compared to TOB)	alginate production (P. aeruginosa; [2])	reduction of preformed biofilm (biofilm aggregates) (P. aeruginosa biofilms)	bacterial growth in the lungs [1]
CO[C@H]1/C=C/O[C@@]2(C)Oc3c(C)c(O)c4c(O)c(c5c(nc6cc(C)ccn65)c4c3C2=O)NC(=O)/C(C)=C\C=C\[C@H](C)[C@H](O)[C@@H](C)[C@@H](O)[C@@H](C)[C@H](OC(C)=O)[C@@H]1C [RFX, rifaximin]	significant decrease in alginate production	significantly decreased alginate production	no significant difference in alginate production	–	–
NC[C@H]1O[C@H](O[C@H]2[C@H](O)[C@@H](O[C@H]3O[C@H](CO)[C@@H](O)[C@H](N)[C@H]3O)[C@H](N)C[C@@H]2N)[C@H](N)C[C@@H]1O [TOB, tobramycin]	–	–	no significant difference in alginate production	significantly reduced biofilm as compared to the untreated control	around 10^8 CFUs
